The source of these data is publication PMC12749166, “Fragment-based drug design of a bacterial kinase inhibitor capable of increasing the antibiotic sensitivity of clinical isolates” (Communications Chemistry, 2025).

≈ marks a conversion by molar mass, not a printed value. Read-outs that look alike come from different tables or passages of the source.

Assay [1] deals with P. aeruginosa clinical isolates. The experiment in a line: MIC by broth micro-dilution. The class given is cell-based. The note with it: Pseudomonas aeruginosa, read-out: MIC. Background: In broth dilution the organism is exposed to a series of concentrations in liquid medium.
Assay [2] has as its system S. aureus C0032. The assay can be described thus: MIC by broth micro-dilution. In kind it is cell-based. The note with it: Staphylococcus aureus; S. aureus C0032, aph(3')-IIIa ant(6); read-out: MIC.
Assay [3] addresses T1, APH(2”)-IVa (Enterococcus casseliflavus, UniProt O68183). The assay can be described thus: biochemical. In kind it is binding. The note with it: read-out: ΔTm (°C). The method, then:
Thermal shift assays were performed using an RTqPCR machine Mx3005P (Stratagene) in 96-well plates (Thermo-Fast low Profile, ThermoScientific) by mixing the protein at 5 µM, SYPRO® Orange (Sigma Aldrich) at […], and fragments at 500 µM. Fluorescence was followed with Cy3 and SYAL filters. Denaturation curves were collected using MxPro-Mx3005P v4.10 software and analyzed using the implemented version of wTSA-CRAFT[36].

In assay [4] the target is T1, APH(2”)-IVa.
In assay [5] the target is T1, APH(2”)-IVa. The assay can be described thus: biochemical. The following applies: Ki (µM), inhibition constant, ATP-competitive; 0-2 mM MgATP, 100 µM kanamycin A, global fitting.
[6] abbreviates: P. aeruginosa C0214, aph(3')-IIb.
Setting [7] is: P. aeruginosa C0307, aph(3')-IIb.

T1 sequence (O68183 1-301): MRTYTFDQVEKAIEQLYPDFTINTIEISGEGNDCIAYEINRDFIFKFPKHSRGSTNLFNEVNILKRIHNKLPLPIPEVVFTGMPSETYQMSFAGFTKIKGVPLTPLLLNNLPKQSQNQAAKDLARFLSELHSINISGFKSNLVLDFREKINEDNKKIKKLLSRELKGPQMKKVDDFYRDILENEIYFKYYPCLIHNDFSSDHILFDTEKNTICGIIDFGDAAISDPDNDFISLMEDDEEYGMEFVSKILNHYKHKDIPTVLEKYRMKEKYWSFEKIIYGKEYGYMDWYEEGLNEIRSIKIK

A word on the MIC: it is the lowest concentration found to suppress growth. `NCC[C@H](O)C(=O)N[C@@H]1C[C@H](N)[C@@H](O[C@H]2O[C@H](CN)[C@@H](O)[C@H](O)[C@H]2O)[C@H](O)[C@H]1O[C@H]1O[C@H](CO)[C@@H](O)[C@H](N)[C@H]1O` [Amikacin]: the MIC is 8 to 32 µg/mL (≈ 13.7 to 54.6 µM) in assay [1] (setting [6]), 4 to 8 µg/mL (≈ 6.83 to 13.7 µM) in assay [1] (setting [7]) and 16 to 32 µg/mL (≈ 27.3 to 54.6 µM) in assay [2]. For orientation: ΔTm means the shift of the melting midpoint relative to a reference. With `Nc1ccc(Br)cn1` [Compound 1], the shift in melting temperature (ΔTm) at 500 µM in assay [3] amounted to 0.5 °C.

A word on the Ki: it is a measure of affinity in units of concentration, obtained from inhibition or displacement. Read a low Ki as higher affinity. In the case of `Clc1cnc2[nH]ccc2c1` [Compound 2, 5-chloro-7-azaindole], in assay [4] (500 µM, times more inhibition than F136), the “Inhibition relative to F136” value was found to be 5.9 times. The Ki in assay [5] amounted to 9.63 µM. As for `O=C(Nc1ccc(Cl)cc1)Nc1ccc(Cl)cn1` [Compound 6], the ΔTm at 500 µM in assay [3] was found to be 0.17 °C.

For the molecule `O=C(Nc1ccc(Br)cc1)Nc1ccc(Br)cn1` [Compound 7], the ΔTm at 500 µM in assay [3] is -0.26 °C. Still for that read-out and setting: under `O=C(O)CNC(=O)Nc1ccc(Br)cn1` [Compound 8] stands -0.25 °C. Turning to `Clc1ccc(NCCc2ccccc2)nc1` [Compound 11], the thermal shift (ΔTm) at 500 µM in assay [3] came out at 0.48 °C. Take `Nc1ncc(Cl)cc1S(=O)(=O)N1CCCC(N)C1` (centres unmarked) [Compound 16]: the ΔTm at 500 µM in assay [3] came out at 1.7 °C.

Turning to `Nc1ncc(Cl)cc1S(=O)(=O)N1CCCNCC1` [Compound 17], in assay [3], the ΔTm at 500 µM worked out at 1.05 °C. Still for that read-out and setting: to `CC1CCCN(S(=O)(=O)c2cc(Cl)cnc2N)C1CN` (centres unmarked) [Compound 22] belongs 0.2 °C. For `Nc1ncc(Cl)cc1S(=O)(=O)NC1CCCNC1` (centres unmarked) [Compound 23], the ΔTm at 500 µM in assay [3] is 0.33 °C. As to `Nc1ncc(Cl)cc1S(=O)(=O)N1CCCCC1c1ncc[nH]1` (centres unmarked) [Compound 24], the ΔTm at 500 µM in assay [3] is 1.99 °C. `Nc1ncc(Cl)cc1S(=O)(=O)NCCCN1CCC(O)CC1` [Compound 25]: the shift in melting temperature (ΔTm) at 500 µM in assay [3] turned out to be 0.6 °C. Take `Cn1nccc1C1CCCN(c2cc(N)ncc2Cl)C1` (centres unmarked) [Compound 27]: the ΔTm at 500 µM in assay [3] is -1.45 °C.

Turning to `Nc1cc(N2CCC(C(=O)N3CCCCC3)CC2)c(Cl)cn1` [Compound 28], the thermal shift (ΔTm) at 500 µM in assay [3] was -1.78 °C. For `Nc1cc(N2CCOC(c3ccccc3)C2)c(Cl)cn1` (centres unmarked) [Compound 30], the ΔTm at 500 µM in assay [3] was -1.22 °C. Regarding `O=C(NCCc1ccccc1)c1cc(NC2CC2)ncc1Cl` [Compound 36-1], affinity in assay [5] was put at a Ki of 66.1 µM. On the same count and under the same terms, under `O=C(NCCc1ccc(O)cc1)c1cc(NC2CC2)ncc1Cl` [Compound 36-2] stands 11.9 µM; under `NC(=O)CNC(=O)c1cc(NC2CC2)ncc1Cl` [Compound 36-3], 32.3 µM. The same measure, in the same setting: to `O=C(NCc1ccccc1)c1cc(NC2CC2)ncc1Cl` [Compound 36-4] belongs 79.1 µM. Same read-out and setting: to `O=C(NCCO)c1cc(NC2CC2)ncc1Cl` [Compound 36-5] belongs 25.6 µM; to `NNC(=O)c1cc(NC2CC2)ncc1Cl` [Compound 36-6], 11.4 µM; to `CN(C)CCNC(=O)c1cc(NC2CC2)ncc1Cl` [Compound 36-7], 18.6 µM. On to `NCCNC(=O)c1cc(NC2CC2)ncc1Cl` [Compound 36-8], for which the affinity in assay [5] corresponds to a Ki of 16.3 µM. Regarding `O=C(NCCc1ccn(-c2ccccc2)n1)c1cc(NC2CC2)ncc1Cl` [Compound 36-9], affinity in assay [5] was put at a Ki of 13.4 µM.

In the case of `O=C(Nc1ccc(O)cc1)Nc1ccc(F)cc1` [Compound 37], the shift in melting temperature (ΔTm) at 500 µM in assay [3] was determined as 1.17 °C. Same read-out and setting: under `Nc1cncc(-c2cc[nH]n2)c1` [Compound 58] stands 1.18 °C; under `O=Cc1cncc(-c2cc[nH]n2)c1` [Compound 66], 0.54 °C; under `COC(=O)c1cncc(-c2cc[nH]n2)c1` [Compound 67], 1.16 °C.

Regarding `Nc1cc(-c2ccn[nH]2)ccn1` [Compound 68], the ΔTm at 500 µM in assay [3] was determined as 1.29 °C. Besides, the Ki in assay [5] was 81.9 µM. Take `O=C(O)c1c[nH]c2ncc(Cl)cc12` [Compound 79]: in assay [5], the inhibition constant Ki was found to be 27.5 µM. As for `NC(=O)c1c[nH]c2ncc(Cl)cc12` [Compound 80], the inhibitory constant (Ki) in assay [5] worked out at 10.3 µM. In turn, `CNC(=O)c1c[nH]c2ncc(Cl)cc12` [Compound 81] displayed a Ki in assay [5] of 9.47 µM. Same read-out and setting: to `CN(C)C(=O)c1c[nH]c2ncc(Cl)cc12` [Compound 82] belongs 19.7 µM; to `Clc1cnc2[nH]ccc2c1-c1cn[nH]c1` [Compound 84], 1.58 µM. Regarding `Clc1cnc2[nH]ccc2c1-c1ccc[nH]1` [Compound 85], the inhibitory constant (Ki) in assay [5] stood at 1.74 µM. The same measure, in the same setting: under `Clc1cnc2[nH]ccc2c1-c1ccsc1` [Compound 86] stands 1.75 µM. As usually defined, the Inhibition is the share of the control response that was lost under treatment. A higher Inhibition goes with a response far below the control. As for `Nc1ccccn1` [Compound F68], in assay [3], the ΔTm at 500 µM was -0.27 °C. Besides, the Inhibition in assay [4] came to 11%. The molecule also had an inhibition constant (Ki) in assay [5] of 260 µM. Consider `Nc1ccc(Cl)cn1` [Compound F69], for which the “Inhibition relative to F68” value in assay [4] (500 µM, times more inhibition than F68) worked out at 6.2 times. Regarding `c1cnc2[nH]ccc2c1` [Compound F136, 7-azaindole], the thermal shift (ΔTm) at 500 µM in assay [3] amounted to 0.06 °C. The same measure, in the same setting: under `CC(=O)c1cc2ccccc2oc1=O` [Compound F144] stands 0.09 °C. Still for that read-out and setting: under `OCc1c[nH]c2ncccc12` [Compound F355, 3-hydroxymethyl-7-azaindole] stands -0.41 °C.

Turning to `C[C@@H](O)[C@H]1C(=O)N2C(C(=O)O)=C(S[C@@H]3CN[C@H](CNS(N)(=O)=O)C3)[C@H](C)[C@H]12` [Doripenem], the minimal inhibitory concentration (MIC) is 0.5 to 1 µg/mL (≈ 1.19 to 2.38 µM) in assay [1] (setting [6]), 0.25 µg/mL (≈ 0.595 µM) in assay [1] (setting [7]) and greater than 4 µg/mL in assay [2]. Taken in the same sequence, the figures for `C[C@@H](O)[C@H]1C(=O)N2C(C(=O)O)=C(S[C@@H]3CN[C@H](C(=O)Nc4cccc(C(=O)O)c4)C3)[C@H](C)[C@H]12` [Ertapenem] were greater than 2 µg/mL, 8 to 16 µg/mL (≈ 16.8 to 33.6 µM) and 4 µg/mL (≈ 8.41 µM). As for `CNC(C)C1CCC(N)C(OC2C(N)CC(N)C(OC3OCC(C)(O)C(NC)C3O)C2O)O1` (centres unmarked) [Gentamicin], the minimal inhibitory concentration (MIC) in assay [1] (setting [6]) is 2 µg/mL (≈ 4.19 µM); in assay [1] (setting [7]), 2 µg/mL (≈ 4.19 µM); in assay [2], less than 1 µg/mL. As for `C[C@@H](O)[C@H]1C(=O)N2C(C(=O)O)=C(SCCN=CN)C[C@H]12` [Imipenem], the MIC in assay [1] (setting [6]) was greater than 2 µg/mL; in assay [1] (setting [7]) it was 2 µg/mL (≈ 6.68 µM). Consider `C[C@@H](O)[C@H]1C(=O)N2C(C(=O)O)=C(S[C@@H]3CN[C@H](C(=O)N(C)C)C3)[C@H](C)[C@H]12` [Meropenem], for which the MIC in assay [1] (setting [6]) is 0.5 to 1 µg/mL (≈ 1.3 to 2.61 µM); in assay [1] (setting [7]), 0.063 to 0.125 µg/mL (≈ 0.164 to 0.326 µM); in assay [2] it was greater than 4 µg/mL. As for `[H]/N=C(/N)N[C@H]1[C@H](O)[C@@H](O)[C@H](O[C@@H]2O[C@@H](C)[C@](O)(C=O)[C@H]2O[C@@H]2O[C@@H](CO)[C@H](O)[C@@H](O)[C@@H]2NC)[C@@H](N/C(N)=N\[H])[C@@H]1O` [Streptomycin], the values for the minimal inhibitory concentration (MIC) in assay [1] (setting [6]), in assay [1] (setting [7]) and in assay [2] were 32 µg/mL (≈ 55 µM), 64 µg/mL (≈ 110 µM) and 2 to 4 µg/mL (≈ 3.44 to 6.88 µM), respectively.
